Measurements: patent US20170334899A1, “AMINO-SUBSTITUTED ISOTHIAZOLES” (Bayer Pharma Aktiengesellschaft, priority 2014, published 2017)

target: T1, human kinase Mps-1 (Homo sapiens, UniProt P33981); test: Mps-1 kinase assay (TR-FRET); format: biochemical; conditions: Mps-1 TR-FRET kinase assay; avg; read-out: Mps1 avg (IC50 [mol/l])
T1 construct: N-terminally GST-tagged human full length recombinant Mps-1 kinase; GST (N); purchased Invitrogen, Karslruhe, Germany PV4071
T1 sequence (P33981 1-857): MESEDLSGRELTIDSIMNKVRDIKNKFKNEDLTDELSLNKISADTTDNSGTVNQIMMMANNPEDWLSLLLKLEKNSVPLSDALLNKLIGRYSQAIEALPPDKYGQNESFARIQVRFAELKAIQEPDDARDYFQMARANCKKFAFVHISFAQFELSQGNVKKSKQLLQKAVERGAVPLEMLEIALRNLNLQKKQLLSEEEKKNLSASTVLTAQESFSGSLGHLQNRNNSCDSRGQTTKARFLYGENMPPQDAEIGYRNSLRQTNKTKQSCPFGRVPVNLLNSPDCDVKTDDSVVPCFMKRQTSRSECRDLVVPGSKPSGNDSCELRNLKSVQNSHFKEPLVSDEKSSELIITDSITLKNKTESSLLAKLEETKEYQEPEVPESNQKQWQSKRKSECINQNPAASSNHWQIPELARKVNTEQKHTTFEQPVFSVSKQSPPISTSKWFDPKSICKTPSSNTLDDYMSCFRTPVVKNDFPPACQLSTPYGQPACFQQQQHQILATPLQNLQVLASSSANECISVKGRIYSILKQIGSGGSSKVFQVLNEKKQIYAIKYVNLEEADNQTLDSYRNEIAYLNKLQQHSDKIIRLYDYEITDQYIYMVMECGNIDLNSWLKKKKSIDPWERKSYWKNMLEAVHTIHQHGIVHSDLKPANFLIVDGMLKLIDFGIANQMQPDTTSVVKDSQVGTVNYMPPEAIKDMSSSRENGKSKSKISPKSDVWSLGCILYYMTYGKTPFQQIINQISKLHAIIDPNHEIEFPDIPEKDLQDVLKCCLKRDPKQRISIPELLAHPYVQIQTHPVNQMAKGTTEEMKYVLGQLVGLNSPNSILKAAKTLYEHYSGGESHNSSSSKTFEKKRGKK
Method in brief: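 GST-tagged full-length recombinant human Mps-1 (~0.5 nM) pre-incubated 15 min with compound, then reacted 60 min at 22 °C with 10 μM ATP and 1 μM biotinylated peptide in Hepes pH 7.7 buffer. EDTA-stopped; TR-FRET (Eu anti-phospho-Ser/Thr to SA-XLent) 665/620 nm ratio normalised to no-inhibitor and no-enzyme controls.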

SMILES	IC50 [µM]
Cc1nsc(Nc2cnc3ccccc3n2)c1C(=O)Nc1ccc(N2CCN(C(=O)OC(C)(C)C)CC2)nc1 [Example 248, tert-butyl 4-[5-({[3-methyl-5-(quinoxalin-2-ylamino)-1,2-thiazol-4-yl]carbonyl}amino)pyridin-2-yl]piperazine-1-carboxylate]	> 20
Cc1nsc(Nc2cnc3ccccc3n2)c1C(=O)Nc1cccc(C(=O)NC2CC2)c1 [Example 249, N-[3-(cyclopropylcarbamoyl)phenyl]-3-methyl-5-(quinoxalin-2-ylamino)-1,2-thiazole-4-carboxamide]	> 20
Cc1nsc(Nc2ccc(C#N)cn2)c1C(=O)Nc1cccc(C(=O)NC2CC2)c1 [Example 250, 5-[(5-cyanopyridin-2-yl)amino]-N-[3-(cyclopropylcarbamoyl)phenyl]-3-methyl-1,2-thiazole-4-carboxamide]	> 20
CCNC(=O)c1cccc(NC(=O)c2c(C)nsc2Nc2cnc3ccccc3n2)c1 [Example 251, N-[3-(ethylcarbamoyl)phenyl]-3-methyl-5-(quinoxalin-2-ylamino)-1,2-thiazole-4-carboxamide]	> 20
CCNC(=O)c1cccc(NC(=O)c2c(C)nsc2Nc2ccc(C#N)cn2)c1 [Example 252, 5-[(5-cyanopyridin-2-yl)amino]-N-[3-(ethylcarbamoyl)phenyl]-3-methyl-1,2-thiazole-4-carboxamide]	> 20
Cc1nsc(Nc2cnc3ccccc3n2)c1C(=O)Nc1cccc(C(=O)NC(C)C)c1 [Example 253, N-[3-(isopropylcarbamoyl)phenyl]-3-methyl-5-(quinoxalin-2-ylamino)-1,2-thiazole-4-carboxamide]	> 20
Cc1nsc(Nc2cc(C#N)ccn2)c1C(=O)Nc1cccc(C(=O)NC(C)C)c1 [Example 254, 5-[(4-cyanopyridin-2-yl)amino]-N-[3-(isopropylcarbamoyl)phenyl]-3-methyl-1,2-thiazole-4-carboxamide]	> 20
Cc1nsc(Nc2ccc(C#N)cn2)c1C(=O)Nc1cccc(C(=O)NC(C)C)c1 [Example 255, 5-[(5-cyanopyridin-2-yl)amino]-N-[3-(isopropylcarbamoyl)phenyl]-3-methyl-1,2-thiazole-4-carboxamide]	> 20
COC(=O)CCCc1ccc(NC(=O)c2c(C)nsc2Nc2cc(C#N)ccn2)cc1 [Example 256, methyl 4-{4-[({5-[(4-cyanopyridin-2-yl)amino]-3-methyl-1,2-thiazol-4-yl}carbonyl)amino]phenyl}butanoate]	> 20
COC(=O)CCc1cccc(NC(=O)c2c(C)nsc2Nc2cnc3ccccc3n2)c1 [Example 257, methyl 3-[3-({[3-methyl-5-(quinoxalin-2-ylamino)-1,2-thiazol-4-yl]carbonyl}amino)phenyl]propanoate]	> 20
Cc1nsc(Nc2cnc3ccccc3n2)c1C(=O)Nc1cccc(NS(=O)(=O)C2CCN(C(=O)OC(C)(C)C)CC2)c1 [Example 258, tert-butyl 4-{[3-({[3-methyl-5-(quinoxalin-2-ylamino)-1,2-thiazol-4-yl]carbonyl}amino)phenyl]sulfamoyl} piperidine-1-carboxylate]	> 20
Cc1nsc(Nc2cnc(C(F)(F)F)cn2)c1C(=O)Nc1ccc(C(=O)NC2CCN(CC(F)F)CC2)cc1 [Example 259, N-(4-{[1-(2,2-difluoroethyl)piperidin-4-yl]carbamoyl}phenyl)-3-methyl-5-{[5-(trifluoromethyl)pyrazin-2-yl]amino}-1,2-thiazole-4-carboxamide]	> 20
Cc1nsc(Nc2cnc(C(F)(F)F)cn2)c1C(=O)Nc1ccc(C(=O)N2CCN(CC(F)(F)F)CC2)cc1 [Example 260, 3-methyl-N-(4-{[4-(2,2,2-trifluoroethyl)piperazin-1-yl]carbonyl}phenyl)-5-{[5-(trifluoromethyl)pyrazin-2-yl]amino}-1,2-thiazole-4-carboxamide]	> 20
CCN1CCN(C(=O)c2ccc(NC(=O)c3c(C)nsc3Nc3cnc(C(F)(F)F)cn3)cc2)CC1 [Example 261, N-{4-[(4-ethylpiperazin-1-yl)carbonyl]phenyl}-3-methyl-5-{[5-(trifluoromethyl)pyrazin-2-yl]amino}-1,2-thiazole-4-carboxamide]	> 20
Cc1nsc(Nc2cnc(C(F)(F)F)cn2)c1C(=O)Nc1ccc(C(=O)N2CCN(C)CC2)cc1 [Example 262, 3-methyl-N-{4-[(4-methylpiperazin-1 yl)carbonyl]phenyl}-5-{[5-(trifluoromethyl)pyrazin-2-yl]amino}-1,2-thiazole-4-carboxamide]	> 20
Cc1nsc(Nc2cnc(C(F)(F)F)cn2)c1C(=O)Nc1ccc(F)c(OC2CCN(CC(F)(F)F)CC2)c1 [Example 264, N-(4-fluoro-3-{[1-(2,2,2-trifluoroethyl)piperidin-4-yl]oxy}phenyl)-3-methyl-5-{[5-(trifluoromethyl)pyrazin-2-yl]amino}-1,2-thiazole-4-carboxamide]	> 20
Cc1nsc(Nc2cnc(C(F)(F)F)cn2)c1C(=O)Nc1ccc(F)c(OC2CCN(CCF)CC2)c1 [Example 266, N-(4-fluoro-3-{[1-(2-fluoroethyl)piperidin-4-yl]oxy}phenyl)-3-methyl-5-{[5-(trifluoromethyl)pyrazin-2-yl]amino}-1,2-thiazole-4-carboxamide]	> 20
Cc1nsc(Nc2cncc(C(F)(F)F)n2)c1C(=O)Nc1ccc(F)c(OC2CCN(CC(F)(F)F)CC2)c1 [Example 267, N-(4-fluoro-3-{[1-(2,2,2-trifluoroethyl)piperidin-4-yl]oxy}phenyl)-3-methyl-5-{[6-(trifluoromethyl)pyrazin-2-yl]amino}-1,2-thiazole-4-carboxamide]	> 20

The remaining lines, values ahead:

IC50 [µM]	SMILES
≥ 20	Cc1nsc(Nc2cnc3ccccc3n2)c1C(=O)Nc1ccc(OC2CCN(CC(F)(F)F)CC2)nc1 [Example 21, 3-Methyl-5-(quinoxalin-2-ylamino)-N-(6-{[1-(2,2,2-trifluoroethyl)piperidin-4-yl]oxy}-pyridin-3-yl)-1,2-thiazole-4-carboxamide]
≥ 20	CC(=O)N1CCC(Oc2ccc(NC(=O)c3c(C)nsc3Nc3cnc4ccccc4n3)cn2)CC1 [Example 22, N-{6-[(1-acetylpiperidin-4-yl)oxy]pyridin-3-yl}-3-methyl-5-(quinoxalin-2-ylamino)-1,2-thiazole-4-carboxamide]
17	Cc1nsc(Nc2cc(C#N)ccn2)c1C(=O)Nc1ccc(OC2CCN(C(=O)OC(C)(C)C)CC2)nc1 [Example 23, tert-Butyl 4-({5-[({5-[(4-cyanopyridin-2-yl)amino]-3-methyl-1,2-thiazol-4-yl}-carbonyl)amino]pyridin-2-yl}oxy)piperidine-1-carboxylate]
9	Cc1nsc(Nc2cc(C#N)ccn2)c1C(=O)Nc1ccc(OC2CCNCC2)nc1 [Example 24, 5-[(4-Cyanopyridin-2-yl)amino]-3-methyl-N-[6-(piperidin-4-yloxy)pyridin-3-yl]-1,2-thiazole-4-carboxamide]
≥ 20	Cc1nsc(Nc2cc(C#N)ccn2)c1C(=O)Nc1ccc(OC2CCN(CC(F)(F)F)CC2)nc1 [Example 25, 5-[(4-Cyanopyridin-2-yl)amino]-3-methyl-N-(6-{[1-(2,2,2-trifluoroethyl)piperidin-4-yl]oxy}pyridin-3-yl)-1,2-thiazole-4-carboxamide]
≥ 20	CCN1CCC(Oc2ccc(NC(=O)c3c(C)nsc3Nc3cc(C#N)ccn3)cn2)CC1 [Example 26, 5-[(4-Cyanopyridin-2-yl)amino]-N-{6-[(1-ethylpiperidin-4-yl)oxy]pyridin-3-yl}-3-methyl-1,2-thiazole-4-carboxamide]
> 20	Cc1nsc(Nc2cc(C#N)ccn2)c1C(=O)Nc1ccc(OC2CCN(CC(F)F)CC2)nc1 [Example 263, 5-[(4-cyanopyridin-2-yl)amino]-N-(6-{[1-(2,2-difluoroethyl)piperidin-4-yl]oxy}pyridin-3-yl)-3-methyl-1,2-thiazole-4-carboxamide]
> 20	Cc1nsc(Nc2cnc(C(F)(F)F)cn2)c1C(=O)Nc1ccc(F)c(OC2CCN(CC(F)F)CC2)c1 [Example 265, N-(3-{[1-(2,2-difluoroethyl)piperidin-4-yl]oxy}-4-fluorophenyl)-3-methyl-5-{[5-(trifluoromethyl)pyrazin-2-yl]amino}-1,2-thiazole-4-carboxamide]
> 20	Cc1nsc(Nc2cncc(C(F)(F)F)n2)c1C(=O)Nc1ccc(F)c(OC2CCN(CC(F)F)CC2)c1 [Example 268, N-(3-{[1-(2,2-difluoroethyl)piperidin-4-yl]oxy}-4-fluorophenyl)-3-methyl-5-{[6-(trifluoromethyl)pyrazin-2-yl]amino}-1,2-thiazole-4-carboxamide]
